ChEMBL document CHEMBL1201862, “PubChem BioAssay data set” (2004)
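Five concentrations, 48 hours, 96-well plates. GI50 marks 50% less growth.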 The source made the active and inactive calls. Rule as the data show it: active = GI50 up to about 1.1 µM and inactive = higher.

Key:
Experiment in all cases: inhibition of tumour cell growth, NCI panel, 48 h
NCI-H460 = tested on: NCI-H460
M19-MEL = tested on: M19-MEL
OVCAR-5 = tested on: OVCAR-5
MOLT-4 = tested on: MOLT-4
SR = tested on: SR
EKVX = tested on: EKVX
HOP-18 = tested on: HOP-18
SN12C = tested on: SN12C
ACHN = tested on: ACHN
RXF 631 = tested on: RXF 631
UACC-257 = tested on: UACC-257
HL-60 = tested on: HL-60
SF-268 = tested on: SF-268
786-0 = tested on: 786-0
COLO 205 = tested on: COLO 205
OVCAR-8 = tested on: OVCAR-8
HOP-62 = tested on: HOP-62
LOX IMVI = tested on: LOX IMVI
IGROV-1 = tested on: IGROV-1
DMS-273 = tested on: DMS-273
A498 = tested on: A498
HCT-15 = tested on: HCT-15
LXFL 529 = tested on: LXFL 529
SK-MEL-28 = tested on: SK-MEL-28
CCRF-CEM = tested on: CCRF-CEM
NCI-H226 = tested on: NCI-H226
SK-OV-3 = tested on: SK-OV-3
SK-MEL-5 = tested on: SK-MEL-5
K562 = tested on: K562
SNB-75 = tested on: SNB-75
DLD-1 = tested on: DLD-1
U-251 = tested on: U-251
TK-10 = tested on: TK-10
HCT-116 = tested on: HCT-116
SW-620 = tested on: SW-620
KM-20L2 = tested on: KM-20L2
SK-MEL-2 = tested on: SK-MEL-2
SF-295 = tested on: SF-295
UO-31 = tested on: UO-31
A549 = tested on: A549
M14 = tested on: M14
RXF 393 = tested on: RXF 393
HT-29 = tested on: HT-29
KM12 = tested on: KM12
UACC-62 = tested on: UACC-62
Malme-3M = tested on: Malme-3M
CAKI-1 = tested on: CAKI-1
OVCAR-3 = tested on: OVCAR-3
NCI-H23 = tested on: NCI-H23
NCI-H522 = tested on: NCI-H522
DMS-114 = tested on: DMS-114
HCC 2998 = tested on: HCC 2998
OVCAR-4 = tested on: OVCAR-4
SNB-19 = tested on: SNB-19
SF-539 = tested on: SF-539
XF498 = tested on: XF498
HOP-92 = tested on: HOP-92

Cc1cccc2c1CCC21OC(=O)c2c1ccc1ccccc21 (configuration not stated)
GI50 (NCI-H460): 42.2 µM (inactive) | GI50 (M19-MEL): 49 µM (inactive) | GI50 (OVCAR-5): 88.5 µM (inactive) | GI50 (MOLT-4): 24.3 µM (inactive) | GI50 (SR): 29.2 µM (inactive) | GI50 (EKVX): 68.5 µM (inactive) | GI50 (HOP-18): 42 µM (inactive) | GI50 (SN12C): > 100 µM (inactive) | GI50 (ACHN): 79.1 µM (inactive) | GI50 (RXF 631): 24.4 µM (inactive) | GI50 (UACC-257): 25.8 µM (inactive) | GI50 (HL-60): 22.1 µM (inactive) | GI50 (SF-268): > 100 µM (inactive) | GI50 (786-0): 83.9 µM (inactive) | GI50 (COLO 205): 47 µM (inactive) | GI50 (OVCAR-8): 85.9 µM (inactive) | GI50 (HOP-62): 70.1 µM (inactive) | GI50 (LOX IMVI): 54.8 µM (inactive) | GI50 (IGROV-1): 55.2 µM (inactive) | GI50 (DMS-273): 32.7 µM (inactive) | GI50 (A498): 16.8 µM (inactive) | GI50 (HCT-15): 35.6 µM | GI50 (LXFL 529): 47.6 µM (inactive) | GI50 (SK-MEL-28): 58.2 µM (inactive) | GI50 (CCRF-CEM): 38.6 µM (inactive) | GI50 (NCI-H226): 56.4 µM (inactive) | GI50 (SK-OV-3): 37.3 µM (inactive) | GI50 (SK-MEL-5): 19.6 µM (inactive) | GI50 (K562): 21.7 µM (inactive) | GI50 (SNB-75): 82.6 µM (inactive) | GI50 (DLD-1): 83.9 µM (inactive) | GI50 (U-251): 45.8 µM (inactive) | GI50 (TK-10): 36.1 µM (inactive) | GI50 (HCT-116): 52.2 µM (inactive) | GI50 (SW-620): 39.2 µM (inactive) | GI50 (KM-20L2): 53.8 µM (inactive) | GI50 (SK-MEL-2): 24.5 µM (inactive) | GI50 (SF-295): 55.5 µM (inactive) | GI50 (UO-31): 47.4 µM (inactive) | GI50 (A549): > 100 µM (inactive) | GI50 (M14): 23.7 µM (inactive) | GI50 (RXF 393): 64 µM (inactive) | GI50 (HT-29): 35.3 µM (inactive) | GI50 (KM12): 56.9 µM (inactive) | GI50 (UACC-62): 40.3 µM (inactive) | GI50 (Malme-3M): 20 µM (inactive) | GI50 (CAKI-1): 34.5 µM (inactive) | GI50 (OVCAR-3): 26 µM (inactive) | GI50 (NCI-H23): 32.9 µM (inactive) | GI50 (NCI-H522): > 100 µM (inactive) | GI50 (DMS-114): 24.8 µM (inactive) | GI50 (HCC 2998): 29.4 µM (inactive) | GI50 (OVCAR-4): 52.6 µM (inactive) | GI50 (SNB-19): 90.4 µM (inactive)

CCc1nc2ccccc2c(=O)n1/N=C(\N=N\c1ccc(Cl)cc1)c1ccccc1Cl
GI50 (NCI-H460): 50.4 µM (inactive) | GI50 (M19-MEL): > 100 µM (inactive) | GI50 (MOLT-4): 26.1 µM (inactive) | GI50 (EKVX): 2.11 µM (inactive) | GI50 (HOP-18): 20 µM (inactive) | GI50 (SN12C): 57.3 µM (inactive) | GI50 (ACHN): 43.2 µM (inactive) | GI50 (SF-539): 47.4 µM (inactive) | GI50 (RXF 631): > 100 µM (inactive) | GI50 (XF498): 18.5 µM (inactive) | GI50 (SF-268): 28 µM (inactive) | GI50 (786-0): 67.8 µM (inactive) | GI50 (COLO 205): 52.6 µM (inactive) | GI50 (OVCAR-8): 39.5 µM (inactive) | GI50 (HOP-62): 39.3 µM (inactive) | GI50 (LOX IMVI): 53.2 µM (inactive) | GI50 (IGROV-1): > 100 µM (inactive) | GI50 (DMS-273): 38.7 µM (inactive) | GI50 (A498): 51.9 µM (inactive) | GI50 (HCT-15): 68.2 µM | GI50 (LXFL 529): 23.4 µM (inactive) | GI50 (SK-MEL-28): 23.5 µM (inactive) | GI50 (SK-OV-3): 60.7 µM (inactive) | GI50 (U-251): 49.7 µM (inactive) | GI50 (TK-10): 82.8 µM (inactive) | GI50 (HCT-116): 26.8 µM (inactive) | GI50 (KM-20L2): 48.3 µM (inactive) | GI50 (HOP-92): 20.2 µM (inactive) | GI50 (SF-295): 54.7 µM (inactive) | GI50 (UO-31): 18.2 µM (inactive) | GI50 (M14): 68.5 µM (inactive) | GI50 (RXF 393): 21.1 µM (inactive) | GI50 (HT-29): 50.9 µM (inactive) | GI50 (UACC-62): > 100 µM (inactive) | GI50 (CAKI-1): 65.5 µM (inactive) | GI50 (NCI-H23): 82.8 µM (inactive) | GI50 (NCI-H522): > 10 µM (inactive) | GI50 (DMS-114): 20.1 µM (inactive)
